pIC50: −log10 of the molar value. Read-outs that look alike come from different tables or passages of the source.
Tested on: 10 human AML cell lines
Assay: alamarBlue growth inhibition, panel of 10 human AML cell lines
Assay type: cell-based
Procedure: Cytotoxicity was assessed using alamarBlue assays (Life Technologies, Grand Island, NY) following manufacturer’s guidelines. Cell death was verified by Annexin V/7-aminoactinomycin D (7AAD) staining (BioLegend, San Diego, CA) per manufacturer’s guidelines.
Cell lines with adverse risk cytogenetic and molecular features, e.g. MLL rearrangements (ML2, MOLM14, MV4;11, THP1), FLT3-ITD (MOLM14, MV4;11), TP53 mutations (KG1a, ML2, THP1, U937), and NRAS/KRAS mutations (ML2, THP1), were among those exquisitely sensitive to ART631, with IC50s < 50 nM. The K562 cell line was the only exception, as it was resistant to all 3 of these ARTs. Based on this in vitro activity data combined with the drug stability data described below, ART631 was prioritized over ART576 for further in vitro and in vivo antileukemic efficacy experiments here ( Table 2 ).

C=CCO/N=C(/C[C@H]1O[C@@H]2O[C@@]3(C)CC[C@H]4[C@H](C)CC[C@@H]([C@H]1C)[C@@]24OO3)[C@H]1O[C@@H]2O[C@@]3(C)CC[C@H]4[C@H](C)CC[C@@H]([C@H]1C)[C@@]24OO3 [ART631]
pIC50 (Homo sapiens, ML2, MOLM14, MV4;11, THP1, KG1a, U937, read-out: IC50s in cell lines with adverse risk cytogenetic and molecular features): > 7.30
number of human AML cell lines whose growth was inhibited (of 10 human AML cell lines tested): 9
pIC50 (range over the inhibited cell lines of 10 human AML cell lines, read-out: IC50 range): 7.35 to 7.70
